These are literature values, as cited in US20220304980A1, “METERED DOSING COMPOSITIONS AND METHODS OF USE OF P[…]” (SW Holdings, Inc, priority 2019, published 2022).

The target of series [1] is 5-HT2A receptor (Homo sapiens, UniProt P28223). The following applies: selective 5-HT2A antagonists; cited from earlier work.
The test system of series [2] is rat veins. The following applies: cited from earlier work.

5-HT2A receptor, sequence (P28223 whole entry): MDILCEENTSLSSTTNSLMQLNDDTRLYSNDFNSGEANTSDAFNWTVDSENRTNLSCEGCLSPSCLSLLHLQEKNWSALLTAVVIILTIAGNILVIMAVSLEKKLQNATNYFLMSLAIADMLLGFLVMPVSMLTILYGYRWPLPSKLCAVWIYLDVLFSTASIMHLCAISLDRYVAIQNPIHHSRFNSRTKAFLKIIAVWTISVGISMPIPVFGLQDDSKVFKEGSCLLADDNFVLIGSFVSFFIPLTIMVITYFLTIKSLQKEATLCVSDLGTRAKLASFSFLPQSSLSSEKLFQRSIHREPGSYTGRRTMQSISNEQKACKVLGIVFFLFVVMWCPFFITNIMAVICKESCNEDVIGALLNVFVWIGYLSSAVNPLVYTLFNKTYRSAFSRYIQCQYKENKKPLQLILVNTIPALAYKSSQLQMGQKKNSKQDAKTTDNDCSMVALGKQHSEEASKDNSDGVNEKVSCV

For the compound `O=CN1CCC(C(=O)NCCN2CCC(=C3c4ccccc4C=Cc4ccccc43)CC2)CC1` [AT-1015], in series [1], the vascular effect entry was “vasodilating properties”.
Turning to `COc1cc(CC(C)N)c(OC)cc1I` (centres unmarked) [DOI], the “effect on rat veins” value in series [2] (5-HT2A agonist) is listed as “constricts rat veins”.
For `O=C(c1ccc(F)cc1)C1CCN(CCn2c(=O)[nH]c3ccccc3c2=O)CC1` [ketanserin], in series [1], the vascular effect entry was “vasodilating properties”. Moreover, the “effect on DOI-induced constriction of rat veins” value in series [2] (5-HT2A antagonist) was “blocked”.
As for `COc1cccc(CCc2ccccc2OCC(CN(C)C)OC(=O)CCC(=O)O)c1` (centres unmarked) [sarpogrelate], the vascular effect entry in series [1] was “vasodilating properties”.
